The values below come from ChEMBL document CHEMBL1132054, “Synthesis and properties of 2-(naphthosultamyl)methyl-carbapenems with potent anti-MRSA activity: discovery of L-786,392” (Bioorg Med Chem Lett, 1999).

Data set [1] deals with Enterococcus faecalis. The experiment in a line: In vitro antibacterial activity against VREFs. The format is functional.
The test system of data set [2] is Staphylococcus aureus. The experiment in a line: Effect of 43 mg/mL of Human Serum Albumin, Fraction V (HSA Fr. V) on antimicrobial activity was assessed against MSSA strain MB 2985. The format is functional.
Data set [3] concerns Staphylococcus sp. The experiment in a line: In vitro antibacterial activity against MRCNS. The class given is functional.
Data set [4] deals with Staphylococcus aureus. Put plainly: Antibacterial activity against Methicillin sensitive Staphylococcus aureus. The format is functional.
In data set [5] the test system is Staphylococcus aureus. Put plainly: In vitro antibacterial activity against MRSA. The format is functional.
Data set [6] deals with T1, Dipeptidase 1 (Sus scrofa) (UniProt P22412).
T1 sequence (whole entry): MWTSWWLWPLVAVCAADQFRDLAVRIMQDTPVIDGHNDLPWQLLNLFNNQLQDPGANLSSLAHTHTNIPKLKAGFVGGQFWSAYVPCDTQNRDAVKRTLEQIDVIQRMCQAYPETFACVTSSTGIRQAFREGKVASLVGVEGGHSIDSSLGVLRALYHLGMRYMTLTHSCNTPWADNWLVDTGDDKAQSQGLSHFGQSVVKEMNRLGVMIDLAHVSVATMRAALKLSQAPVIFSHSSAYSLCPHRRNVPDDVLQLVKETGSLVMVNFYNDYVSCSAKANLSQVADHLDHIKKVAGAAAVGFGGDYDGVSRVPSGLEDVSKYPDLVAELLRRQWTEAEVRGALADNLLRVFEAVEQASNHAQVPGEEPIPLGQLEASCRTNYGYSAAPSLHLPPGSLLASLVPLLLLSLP
Put plainly: Susceptibility to hog kidney dehydropeptidase-I. The format is functional, tissue-based. Also on record: reference not given here.

The species entered for data set [7] is Mus musculus. The experiment in a line: Dose showing no visible effects (ataxia, somnolence) in two mice. The format is functional.
The test system of data set [8] is Enterococcus faecium. Put plainly: In vitro antibacterial activity against MDREFm. The class given is functional.
For data set [9], the system named is Streptococcus pneumoniae. Put plainly: In vitro antibacterial activity against PRSP. The class given is functional.
A short description of data set [10]: Lethal dose defined as as the lowest dose resulting in the death of a single mouse. The class given is toxicity. The conditions noted are these: in vivo.
The target of data set [11] is T1, Dipeptidase 1 (Sus scrofa). Put plainly: Compound was tested for susceptibility to hog kidney dehydropeptidase-I and expressed as a reaction rate normalized to the rate observed with imipenem (IPM). The class given is functional, tissue-based.
Data set [12] relates to Staphylococcus aureus. Put plainly: Effect of 43 mg/mL of Human Serum Albumin, Fraction V (HSA Fr. V) on antimicrobial activity was assessed against Methicillin sensitive Staphylococcus aureus strain MB 2985. The class given is functional.
The subject of data set [13] is Enterococcus faecium. Put plainly: Antibacterial activity against MDREFm. The format is functional.
Data set [14] concerns Enterococcus faecium. The experiment in a line: Antibacterial activity against VREFs. The format is functional.
Data set [15] relates to Staphylococcus aureus. The experiment in a line: Antibacterial activity against Methicillin sensitive Staphylococcus aureus-/+ HSA Fr. V. The class given is functional.

By MIC is commonly meant the lowest concentration found to suppress growth. Take `C[C@@H](O)[C@H]1C(=O)N2C(C(=O)O)=C(CN3c4cccc5ccc(CC[N+]67CC[N+](CC(N)=O)(CC6)CC7)c(c45)S3(=O)=O)[C@H](C)[C@H]12.[Cl-].[Cl-]`: the minimum inhibitory concentration (MIC) in data set [1] was 8 µg/mL; in data set [2] it was 0.016 µg/mL; in data set [3] it was 1.2 µg/mL; in data set [4], 0.016 µg/mL; in [5], 0.9 µg/mL; in data set [8], 10.1 µg/mL. In data set [9], this molecule yielded a minimum inhibitory concentration (MIC) of 0.35 µg/mL. This molecule had an Activity in data set [6] of 0. This molecule also showed an NOEL in [7] of 16 mg/kg. Moreover, the Lethal dose in data set [10] amounted to 63 mg/kg.

On to `C[C@@H](O)[C@H]1C(=O)N2C(C(=O)O)=C(CN3c4cccc5c(CC[N+]67CC[N+](Cc8ccccc8)(CC6)CC7)ccc(c45)S3(=O)=O)[C@H](C)[C@H]12.[Cl-].[Cl-]`, for which the MIC in data set [1] came out at 8 µg/mL; in data set [3], 1.3 µg/mL; in data set [5], 0.9 µg/mL; in data set [8] it was 6.4 µg/mL; in [9], 0.35 µg/mL. Further, in data set [11], the Activity turned out to be 1.85. Also, the NOEL in [7] turned out to be 63 mg/kg. Also, the Lethal dose in [10] worked out at 250 mg/kg.

For `C[C@@H](O)[C@H]1C(=O)N2C(C(=O)O)=C(CN3c4cccc5c(CC[N+]67CC[N+](CC(N)=O)(CC6)CC7)ccc(c45)S3(=O)=O)[C@H](C)[C@H]12.[Cl-].[Cl-]`, the minimum inhibitory concentration (MIC) in data set [3] was 1 µg/mL; in data set [12], 0.031 µg/mL; in [5] it was 0.7 µg/mL; in [13], 4 µg/mL; in data set [14], 8 µg/mL; in data set [15], 0.016 µg/mL. The minimal inhibitory concentration (MIC) in [9] was determined as 0.17 µg/mL. This molecule registered an Activity in [6] of 1.77. This molecule also had an NOEL in data set [7] of 250 mg/kg. The Lethal dose in data set [10] is greater than 500 mg/kg.
